# Assay results as given in patent US20220202852A1, “METHODS AND COMPOSITIONS OF AQUEOUS HYPOBROMOUS ACID FOR THE TREATMENT AND PREVENTION OF INFLAMMATORY CONDITIONS” (Briotech, Inc., priority 2020, published 2022).
# Experiments:
# [1] = system: spores of Bacillus subtilis; experiment: Inactivation of resistant spores by HOBr/HOCl solutions; type: cell-based; conditions: 20 seconds contact
# Protocol: Hypobromous acid (HOBr) was prepared by the exposure of a slight excess of one equivalent of aqueous bromide ion (as NaBr) to one equivalent of HOCl. This solution was prepared fresh for use in tests for inactivation of resistant microbial organisms.
# Exposures as brief as 20 seconds to HOBr at approximately 25 ppm were sufficient to produce LRV of 6. In the same experimental protocol HOC1 at 230 ppm was required to produce 6 LRV in the same contact time. As soon as the HOCl concentration used was below 230 ppm, the LRVs fell into the 2-4 range.
# A. niger = experiment: Comparative antimicrobial efficacy of HOBr and HOCl solutions vs suspensions; type: cell-based; conditions: all concentrations tested, 40 s exposure
# Protocol: (§1) FIGS. 3A-3C compare antimicrobial efficacy comparison of HOBr and HOCl solutions: E. coli, 20 s exposure (3A); S. aureus, 40 s exposure (3B); and A. niger, 40 s exposure (3C). HOBr=diagonal lines; HOCl=stippling.
# (§2) Preparations of HOCl stored at 22° C. for several weeks and freshly prepared HOBr solutions were compared in their antimicrobial properties versus suspensions of E. coli, S. aureus, and A. niger (see FIG. 3).
# E. coli = experiment: as above; type: cell-based; conditions: 20 s exposure
# Protocol: as §1, §2
# S. aureus = experiment: as above; type: cell-based; conditions: 40 s exposure
# Protocol: as §1, §2
# [2] = system: human skin and mucous membranes, including conjunctiva; experiment: Safety of topically applied freshly prepared aqueous HOBr; type: in vivo; conditions: HOBr solution made from HOCl containing 200 ppm of Cl plus an equivalent of NaBr
# Description: A solution of HOBr was made by addition of an equivalent of NaBr to a solution of HOCl containing 200 ppm of Cl.
# [3] = lower concentrations (<115 ppm)
Compound,"LRV, inactivation of Bacillus subtilis spores ([1]; 230 ppm)","LRV, inactivation of Bacillus subtilis spores ([1]; approximately 25 ppm)","LRV, inactivation of Bacillus subtilis spores ([1]; concentration below 230 ppm)","efficacy against A. niger, comparative (A. niger)","inactivating E. coli, comparative efficacy (E. coli; high concentrations (≥115 ppm))","inactivating S. aureus, comparative efficacy (S. aureus; high concentrations (≥115 ppm))","inactivating E. coli, comparative efficacy (E. coli; [3])","inactivating S. aureus, comparative efficacy (S. aureus; [3])",adverse effects on epithelial surfaces after topical application [2]
"OCl [HOCl, hypochlorous acid]",6,no detectable effect,2-4,equally or more effective than HOBr,equally effective,equally effective,–,–,–
"OBr [HOBr, Hypobromous acid]",–,6,–,–,equally effective,equally effective,markedly more effective than HOCl,markedly more effective than HOCl,without any indication of adverse effects
